From patent US10988462B2, “Pyrazole compounds substituted with heteroaryl and pharmaceutical use thereof” (Japan Tobacco Inc., priority 2018, dated 2021)

Legend:
[1] = test system: Escherichia coli WP2uvrA; assay: Ames test (reverse mutation test), pre-incubation method, strain WP2uvrA; assay type: cell-based; details: positive control; S9 mix −; dose 0.01 μg/plate
Source text: Ames Test (Reverse Mutation Test)
Two plates per treatment were used.

[2] = target: human SGLT1 (Homo sapiens (Human), UniProt P13866); assay: SGLT1 inhibitory activity: intracellular uptake of 14C-AMG in human SGLT1-stably-expressing CHO-K1 cell line; assay type: cell-based; details: human SGLT1-stably-expressing CHO-K1 cells, 14C-AMG uptake; read-out: hSGLT1 IC50
Sequence of human SGLT1 (P13866 whole entry): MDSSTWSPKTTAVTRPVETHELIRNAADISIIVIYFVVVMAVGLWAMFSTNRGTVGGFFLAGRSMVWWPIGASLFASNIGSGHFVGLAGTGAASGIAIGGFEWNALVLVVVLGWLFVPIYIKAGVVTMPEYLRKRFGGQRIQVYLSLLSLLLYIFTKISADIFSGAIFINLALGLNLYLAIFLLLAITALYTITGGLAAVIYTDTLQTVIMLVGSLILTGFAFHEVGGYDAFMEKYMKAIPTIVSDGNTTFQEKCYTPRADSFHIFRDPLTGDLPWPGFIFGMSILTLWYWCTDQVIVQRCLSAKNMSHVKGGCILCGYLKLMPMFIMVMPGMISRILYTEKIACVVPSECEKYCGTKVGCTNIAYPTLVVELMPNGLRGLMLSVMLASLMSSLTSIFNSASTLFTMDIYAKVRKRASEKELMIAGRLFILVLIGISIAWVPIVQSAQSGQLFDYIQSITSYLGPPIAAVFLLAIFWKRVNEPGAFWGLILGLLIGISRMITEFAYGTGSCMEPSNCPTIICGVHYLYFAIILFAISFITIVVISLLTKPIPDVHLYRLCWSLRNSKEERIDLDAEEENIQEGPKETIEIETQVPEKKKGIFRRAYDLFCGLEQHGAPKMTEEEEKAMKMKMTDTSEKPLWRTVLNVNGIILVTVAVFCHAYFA
Experimental: SGLT1 inhibitory activities of test compounds (IC50 values) were calculated based on the amount of intracellular uptake of labelled α-methyl-D-glucopyranoside (^14C-AMG) transported by SGLT1.
1) Formation of Human SGLT1-Expressing Plasmid
A DNA fragment containing human SGLT1 was amplified by PCR (Polymerase Chain Reaction) using pCMV6-hSGLT1 (OriGene) as a template. In the human SGLT1, NheI recognition and cleavage sequence was added to the upstream of Kozac consensus sequence derived from a vector, and a stop codon, TAG, and SalI recognition and cleavage sequence were added to the immediate downstream of the protein-translating region of human SGLT1. The purified DNA fragment was cleaved by restriction enzymes NheI and SalI, followed by ligation with pcDNA3.1 (+) which was cleaved by NheI and XhoI, thereby forming human SGLT1-expressing plasmid, pcDNA-hSGLT1. The nucleic acid sequence of human SGLT1 inserted into a vector was completely identical to the protein-translated region of human SGLT1 sequence (Accession number NM_000343) registered in GenBank, and the sequence of the portion connected to the vector was as expected.
2) Establishment of Human SGLT1-Stably-Expressing Cell Lines
Human SGLT-expressing plasmid, pcDNA-hSGLT1, was transfected into each CHO-K1 cell by Lipofectamine 2000 (Invitrogen) and cultured in the presence of G418 (Nacalai Tesque) to select drug-resistant cell lines. A cell line having the highest ratio (S/B ratio) of the amount of intracellular uptake of ^14C-AMG per cell to the amount of intracellular uptake of ^14C-AMG after treatment with a SGLT inhibitor, phlorizin, was selected as a human SGLT1-stably-expressing cell line from the drug-resistant cell lines.
3) Assessment of SGLT1 Inhibitory Activity
Human SGLT1-stably-expressing cell lines were seeded at 5×10^4 cells/well on BioCoat™ Poly-D-Lysine 96 well plate with Lid (Becton, Dickinson and Company) and cultured at 37° C. under 5% CO2 overnight. The medium was replaced with 100 μL/well of Na(−) buffer (140 mM choline chloride, 2 mM KCl, 1 mM MgCl2, 1 mM CaCl2, 10 mM HEPES, 5 mM Tris, pH 7.4), and then the mixture was let stand at 37° C. under 5% CO2 for 20 minutes. After removal of Na(−) buffer, thereto was added 40 μL/well of a test compound solution prepared with Na(+) buffer (140 mM NaCl, 2 mM KCl, 1 mM MgCl2, 1 mM CaCl2, 10 mM HEPES, 5 mM Tris, pH 7.4) comprising BSA. Then, thereto was added 40 μL/well of Na(+) buffer comprising 8 kBq of ^14C-AMG and 2 mM AMG, and the mixture was mixed well. For a blank, 40 μL/well of Na(−) buffer comprising BSA was added, and in addition, 40 μL/well of Na(−) buffer comprising 8 kBq of ^14C-AMG and 2 mM AMG was added, and the mixture was mixed well. After incubation by being let stand for 1 hour at 37° C. under 5% CO2, cells were washed twice with 100 μL/well of ice-cooled wash buffer (100 mM AMG, 140 mM choline chloride, 2 mM KCl, 1 mM MgCl2, 1 mM CaCl2, 10 mM HEPES, 5 mM Tris, pH 7.4) to terminate the reaction. A cell lysate was prepared by addition of 50 μL/well of 0.2N aqueous NaOH solution. In the assessment for the uptake ability of ^14C-AMG, the total amount of the cell lysate was transferred to OptiPlate 96 (Perkin-Elmer) with 100 μL/well of MicroScint-40 (Perkin-Elmer) dispensed and ^14C of CPM was measured with TOPCOUNT NXT (Perkin-Elmer).
Data was calculated by deducting the average value of CPM for blank well from the average value of CPM for each well treated. An inhibition rate for each test compound in each concentration was calculated from the following equation: [(A−B)/A]×100 wherein A is data for a solvent control and B is data for treatment with each test compound.

Structure (SMILES) | IC50 [2] [nM] | Number of revertant colonies WP2uvrA [1]
NC(=O)C(=Cc1ccc([N+](=O)[O-])o1)c1ccco1 [AF-2, 2-(2-Furyl)-3-(5-nitro-2-furyl)acrylamide, reference compound] | – | 154
C[C@H]1C(=O)NC[C@@H]1C(=O)Nc1cc(-c2cc(F)cc(OC(F)(F)F)c2)n(-c2cncc(F)c2)n1 [Example 2, (3R,4R)—N-(5-(3-fluoro-5-(trifluoromethoxy)phenyl)-1-(5-fluoropyridin-3-yl)-1H-pyrazol-3-yl)-4-methyl-5-oxopyrrolidine-3-carboxamide] | 14 | –
C[C@H]1C(=O)NC[C@@H]1C(=O)Nc1cc(-c2cc(F)cc(OC(F)(F)F)c2)n(-c2cncc(C(F)(F)F)c2)n1 [Example 3] | 8.6 | –
C[C@H]1C(=O)NC[C@@H]1C(=O)Nc1cc(-c2cc(F)cc(OC(C)(C)C)c2)n(-c2cnccn2)n1 [Example 4] | 23 | –
C[C@H]1C(=O)NC[C@@H]1C(=O)Nc1cc(-c2cccc(OC(F)(F)F)c2)n(-c2cncc(F)c2)n1 [Example 5] | 22 | –
C[C@H]1C(=O)NC[C@@H]1C(=O)Nc1cc(-c2cccc(OC(F)(F)F)c2)n(-c2cncc(Cl)c2)n1 [Example 6] | 9 | –
C[C@H]1C(=O)NC[C@@H]1C(=O)Nc1cc(-c2cccc(OC(F)(F)F)c2)n(-c2cncc(C(F)(F)F)c2)n1 [Example 7] | 17 | –
C[C@H]1C(=O)NC[C@@H]1C(=O)Nc1cc(-c2cc(F)cc(OC(C)(C)C(F)(F)F)c2)n(-c2ccnc(C(F)(F)F)n2)n1 [Example 9] | 73 | –
C[C@H]1C(=O)NC[C@@H]1C(=O)Nc1cc(-c2cc(F)cc(OC(C)(C)C(F)(F)F)c2)n(-c2cccnc2C#N)n1 [Example 11] | 8.4 | –
C[C@H]1C(=O)NC[C@@H]1C(=O)Nc1cc(-c2cc(F)cc(OC(C)(C)C(F)(F)F)c2)n(-c2nccc(C(F)(F)F)n2)n1 [Example 16] | 83 | –
C[C@H]1C(=O)NC[C@@H]1C(=O)Nc1cc(-c2cc(F)cc(OC(C)(C)C(F)(F)F)c2)n(-c2cncc(C(F)(F)F)n2)n1 [Example 18] | 29 | –
C[C@H]1C(=O)NC[C@@H]1C(=O)Nc1cc(-c2cc(F)cc(OC(C)(C)C(F)(F)F)c2)n(-c2nccnc2C(F)(F)F)n1 [Example 19] | 29 | –
C[C@H]1C(=O)NC[C@@H]1C(=O)Nc1cc(-c2cc(F)cc(OC(C)(C)C(F)(F)F)c2)n(-c2cnccn2)n1 [Example 23] | 11 | –
C[C@H]1C(=O)NC[C@@H]1C(=O)Nc1cc(-c2cccc(OC(F)(F)F)c2)n(-c2cnc(C(F)(F)F)nc2)n1 [Example 26] | 47 | –
C[C@H]1C(=O)NC[C@@H]1C(=O)Nc1cc(-c2cc(F)cc(OC(F)(F)F)c2)n(-c2cnc(C(F)(F)F)nc2)n1 [Example 27] | 30 | –
C[C@H]1C(=O)NC[C@@H]1C(=O)Nc1cc(-c2cc(F)cc(OC(F)(F)F)c2)n(-c2cncnc2)n1 [Example 29] | 52 | –
C[C@H]1C(=O)NC[C@@H]1C(=O)Nc1cc(-c2cc(F)cc(OCC(F)(F)F)c2)n(-c2cncnc2)n1 [Example 32] | 69 | –
C[C@H]1C(=O)NC[C@@H]1C(=O)Nc1cc(-c2cc(F)cc(OCC(F)(F)F)c2)n(-c2cncc(F)c2)n1 [Example 34] | 9.8 | –

Second part, led by results:

IC50 [2] [nM] | Structure (SMILES) | Number of revertant colonies WP2uvrA [1]
1.9 | C[C@H]1C(=O)NC[C@@H]1C(=O)Nc1cc(-c2cc(F)cc(OC(C)(C)C(F)(F)F)c2)n(-c2cnc(C(F)(F)F)nc2)n1 [Example 1, (3R,4R)—N-(5-(3-fluoro-5-((1,1,1-trifluoro-2-methylpropan-2-yl)oxy)phenyl)-1-(2-(trifluoromethyl)pyrimidin-5-yl)-1H-pyrazol-3-yl)-4-methyl-5-oxopyrrolidine-3-carboxamide] | –
1.2 | C[C@H]1C(=O)NC[C@@H]1C(=O)Nc1cc(-c2cc(F)cc(OC(C)(C)C(F)(F)F)c2)n(-c2cncc(C(F)(F)F)c2)n1 [Example 10] | –
4.3 | C[C@H]1C(=O)NC[C@@H]1C(=O)Nc1cc(-c2cc(F)cc(OC(C)(C)C(F)(F)F)c2)n(-c2cccnc2C(F)(F)F)n1 [Example 12] | –
2.9 | C[C@H]1C(=O)NC[C@@H]1C(=O)Nc1cc(-c2cc(F)cc(OC(C)(C)C(F)(F)F)c2)n(-c2cnccc2C(F)(F)F)n1 [Example 13] | –
3.7 | C[C@H]1C(=O)NC[C@@H]1C(=O)Nc1cc(-c2cc(F)cc(OC(C)(C)C(F)(F)F)c2)n(-c2cnccc2C#N)n1 [Example 14] | –
6.1 | C[C@H]1C(=O)NC[C@@H]1C(=O)Nc1cc(-c2cc(F)cc(OC(C)(C)C(F)(F)F)c2)n(-c2cnc(C(F)(F)F)cn2)n1 [Example 15] | –
1.3 | C[C@H]1C(=O)NC[C@@H]1C(=O)Nc1cc(-c2cc(F)cc(OC(C)(C)C(F)(F)F)c2)n(-c2cncc(Cl)c2)n1 [Example 17] | –
1.2 | C[C@H]1C(=O)NC[C@@H]1C(=O)Nc1cc(-c2cc(F)cc(OC(C)(C)C(F)(F)F)c2)n(-c2ccc(C(F)(F)F)nc2)n1 [Example 20] | –
1.2 | C[C@H]1C(=O)NC[C@@H]1C(=O)Nc1cc(-c2cc(F)cc(OC(C)(C)C(F)(F)F)c2)n(-c2cncc(F)c2)n1 [Example 21] | –
3.4 | C[C@H]1C(=O)NC[C@@H]1C(=O)Nc1cc(-c2cc(F)cc(OC(C)(C)C(F)(F)F)c2)n(-c2cncnc2)n1 [Example 22] | –
5.3 | C[C@H]1C(=O)NC[C@@H]1C(=O)Nc1cc(-c2cc(F)cc(OC(C)(C)C(F)(F)F)c2)n(-c2ccc(C(F)(F)F)cn2)n1 [Example 24] | –
5.7 | C[C@H]1C(=O)NC[C@@H]1C(=O)Nc1cc(-c2cc(F)cc(OCC(F)(F)F)c2)n(-c2cnc(C(F)(F)F)nc2)n1 [Example 25] | –
7.2 | C[C@H]1C(=O)NC[C@@H]1C(=O)Nc1cc(-c2cc(F)cc(OC(F)(F)F)c2)n(-c2ccc(C(F)(F)F)nc2)n1 [Example 28] | –
2.7 | C[C@H]1C(=O)NC[C@@H]1C(=O)Nc1cc(-c2cc(F)cc(OC(F)(F)F)c2)n(-c2cncc(Cl)c2)n1 [Example 30] | –
5.7 | C[C@H]1C(=O)NC[C@@H]1C(=O)Nc1cc(-c2cc(F)cc(OCC(F)(F)F)c2)n(-c2cncc(C(F)(F)F)c2)n1 [Example 31] | –
5.9 | C[C@H]1C(=O)NC[C@@H]1C(=O)Nc1cc(-c2cc(F)cc(OCC(F)(F)F)c2)n(-c2ccc(C(F)(F)F)nc2)n1 [Example 33] | –
4.6 | C[C@H]1C(=O)NC[C@@H]1C(=O)Nc1cc(-c2cc(F)cc(OCC(F)(F)F)c2)n(-c2cncc(Cl)c2)n1 [Example 35] | –
1.9 | COc1ncc(-n2nc(NC(=O)[C@H]3CNC(=O)[C@@H]3C)cc2-c2cc(F)cc(OC(C)(C)C(F)(F)F)c2)cn1 [Example 36] | –
0.98 | C[C@H]1C(=O)NC[C@@H]1C(=O)Nc1cc(-c2cc(F)cc(OC(C)(C)C(F)(F)F)c2)n(-c2cnc(N(C)C)nc2)n1 [Example 37] | –
4 | Cc1ncc(-n2nc(NC(=O)[C@H]3CNC(=O)[C@@H]3C)cc2-c2cc(F)cc(OC(C)(C)C(F)(F)F)c2)cn1 [Example 38] | –
